In one test the target is T1, Bovine Brain MAO B (Bos taurus, UniProt P56560).
T1 construct: in vitro activity of MAO from bovine brain mitochondria; from tissue; host or cells: bovine brain mitochondria
T1 sequence (P56560 1-520): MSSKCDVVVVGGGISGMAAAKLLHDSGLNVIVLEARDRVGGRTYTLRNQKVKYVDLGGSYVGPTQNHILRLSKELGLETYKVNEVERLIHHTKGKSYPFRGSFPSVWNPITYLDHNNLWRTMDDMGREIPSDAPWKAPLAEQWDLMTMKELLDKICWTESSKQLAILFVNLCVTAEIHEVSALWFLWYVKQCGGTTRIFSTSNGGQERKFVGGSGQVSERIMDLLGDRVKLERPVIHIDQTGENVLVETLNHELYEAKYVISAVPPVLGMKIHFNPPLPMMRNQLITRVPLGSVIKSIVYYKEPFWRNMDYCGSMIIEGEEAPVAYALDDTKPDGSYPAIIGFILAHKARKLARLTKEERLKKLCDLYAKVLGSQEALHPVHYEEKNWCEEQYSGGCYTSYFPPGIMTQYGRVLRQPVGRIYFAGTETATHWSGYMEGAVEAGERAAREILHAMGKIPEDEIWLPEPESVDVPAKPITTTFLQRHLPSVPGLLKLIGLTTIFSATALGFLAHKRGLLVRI
Briefly: In vitro inhibition of MAO from bovine brain mitochondria, tyramine as substrate (form B). Format: biochemical. Also noted: key to Bovine Brain MAO, mark printed in place of a B value (nonselective): ns = nonselective. To be noted: for pIC50: pI50 = -log [I50], molar, bovine brain mitochondria, tyramine as substrate; for Bovine Brain MAO, mark printed in place of a B value (nonselective): one pI50 given, no separate A and B values. An excerpt:
(§1) The following table illustrates the structure of particular compounds of the invention (1). It also gives specific pI50 values where pI50 =-log [I50 ] where [I50 ] is the molar concentration of test compound which inhibits 50% of the in vitro activity of MAO from bovine brain mitochondria using tyramine as substrate.

In another test the target is T2, Bovine Brain MAO A (Bos taurus, UniProt P21398).
T2 construct: in vitro activity of MAO from bovine brain mitochondria; from tissue; host or cells: bovine brain mitochondria
T2 sequence (P21398 1-527): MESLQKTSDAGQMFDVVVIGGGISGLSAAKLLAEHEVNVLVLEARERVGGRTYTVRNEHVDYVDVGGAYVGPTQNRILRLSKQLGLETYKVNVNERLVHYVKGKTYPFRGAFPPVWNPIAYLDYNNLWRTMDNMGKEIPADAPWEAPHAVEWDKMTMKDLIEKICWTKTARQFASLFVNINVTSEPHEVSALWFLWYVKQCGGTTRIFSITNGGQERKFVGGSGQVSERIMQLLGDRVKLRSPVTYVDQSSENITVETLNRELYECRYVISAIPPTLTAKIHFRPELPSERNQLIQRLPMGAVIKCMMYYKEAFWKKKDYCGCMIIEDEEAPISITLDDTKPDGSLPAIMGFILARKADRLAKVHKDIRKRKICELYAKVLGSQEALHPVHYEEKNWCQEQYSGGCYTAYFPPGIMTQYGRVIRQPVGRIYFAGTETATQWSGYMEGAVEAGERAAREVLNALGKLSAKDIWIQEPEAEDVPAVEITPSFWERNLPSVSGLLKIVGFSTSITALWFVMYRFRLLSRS
Put plainly: In vitro inhibition of MAO from bovine brain mitochondria, tyramine as substrate (form A). The test is classed as biochemical. To be noted: pI50 = -log [I50], molar.
Excerpt: as §1

Molecules are shown by their SMILES. pIC50: −log10 of the molar value. Some results are limits rather than exact numbers.

By pIC50 is commonly meant the IC50 on a negative log10 scale, so that one unit is a factor of ten. Regarding `CC#CCNCc1cc2cc(OC)ccc2n1C` [(m), N-(2-butynyl)-2-(1-methyl-5-methoxy-indolyl)methylamine], the pIC50 against Bovine Brain MAO B is 4.10; against Bovine Brain MAO A it was 6.89.

Regarding `CC#CCN(C)Cc1cc2cc(OC)ccc2[nH]1` [(f), N-(2-butynyl)-N-methyl-2-(5-methoxy-indolyl)methylamine], the pIC50 was 4.89 at Bovine Brain MAO B and 8.05 at Bovine Brain MAO A.

For the molecule `C=C=CCN(C)Cc1cc2cc(OC)ccc2n1C` [(r), N-(2,3-butadienyl)-N-methyl-2-(1-methyl-5-methoxy-indolyl)-methylamine], the pIC50 against Bovine Brain MAO B is 6.30; against Bovine Brain MAO A, 8.27.

Consider `C=C=CCNCc1cc2cc(OC)ccc2[nH]1` [(g), N-(2,3-butadienyl)-2-(5-methoxy-indolyl)methylamine], for which the pIC50 at Bovine Brain MAO B is 5.60; on Bovine Brain MAO A it was 7.35.

Turning to `C=C=CCN(CC=C=C)Cc1cc2cc(OC)ccc2[nH]1` [(h), N,N-bis(2,3-butadienyl)-2-(5-methoxy-indolyl)methylamine], the “Bovine Brain MAO, mark printed in place of a B value (nonselective)” value (“Bovine Brain MAO … (nonselective)” for short) on Bovine Brain MAO B is “ns”. On Bovine Brain MAO A, this molecule gave a pIC50 of 6.35.

As for `C#CCN(C)Cc1cc2cc(OC)ccc2[nH]1` [(c), N-methyl-N-propargyl-2-(5-methoxy-indolyl)methylamine], the pIC50 at Bovine Brain MAO B was 6.35; against Bovine Brain MAO A, 8.15.

For `C=C=CCNCc1cc2cc(OC)ccc2n1C` [(p), N-(2,3-butadienyl)-2-(1-methyl-5-methoxy-indolyl)methylamine], the negative logarithm of the IC50 (pIC50) is 6.40 against Bovine Brain MAO B and 7.66 at Bovine Brain MAO A.

Take `C#CCNCc1cc2cc(OC)ccc2n1C` [(j), N-propargyl-2-(1-methyl-5-methoxy-indolyl)methylamine]: the results for the pIC50 on Bovine Brain MAO B and on Bovine Brain MAO A were 4.35 and 7.68, respectively.

In the case of `CC#CCN(C)Cc1cc2cc(OC)ccc2n1C` [(o), N-(2-butynyl)-N-methyl-2-(1-methyl-5-methoxy-indolyl)methylamine], the “Bovine Brain MAO … (nonselective)” value on Bovine Brain MAO B is recorded as “ns”. Further, the pIC50 at Bovine Brain MAO A is 7.45.

With `CNCc1cc2cc(OC)ccc2n1C` [(v), N-methyl-2-(1-methyl-5-methoxy-indolyl)methylamine], the “Bovine Brain MAO … (nonselective)” value at Bovine Brain MAO B was “ns”. Moreover, on Bovine Brain MAO A, the pIC50 was 3.89.

For `C#CCNCc1cc2cc(OC)ccc2[nH]1` [(a), N-propargyl-2-(5-methoxy-indolyl)methylamine], the values for the pIC50 on Bovine Brain MAO B and against Bovine Brain MAO A were 3.96 and 6.66, respectively.

Regarding `CC#CCN(CC#CC)Cc1cc2cc(OC)ccc2[nH]1` [(e), N,N-bis(2-butynyl)-2-(5-methoxy-indolyl)methylamine], the pIC50 against Bovine Brain MAO B was less than 4.70; on Bovine Brain MAO A, not above 4.70.

With `COc1ccc2c(c1)cc(CN)n2C` [(u), 2-(1-methyl-5-methoxy-indolyl)methylamine], at Bovine Brain MAO B, the “Bovine Brain MAO … (nonselective)” value is given as “ns”. Moreover, the pIC50 against Bovine Brain MAO A is 4.74.

On to `C=C=CCN(C)Cc1cc2cc(OC)ccc2[nH]1` [(i), N-(2,3-butadienyl)-N-methyl-2-(5-methoxy-indolyl)methylamine], for which the pIC50 is 5.30 on Bovine Brain MAO B and 7.75 at Bovine Brain MAO A.

Take `CC#CCN(CC#CC)Cc1cc2cc(OC)ccc2n1C` [(n), N,N-bis(2-butynyl)-2-(1-methyl-5-methoxy-indolyl)methylamine]: the pIC50 against Bovine Brain MAO B was less than 3.30; against Bovine Brain MAO A it was 5.40.

As for `C#CCN(CC#C)Cc1cc2cc(OC)ccc2n1C` [(k), N,N-bis(propargyl)-2-(1-methyl-5-methoxy-indolyl)methylamine], the “Bovine Brain MAO … (nonselective)” value on Bovine Brain MAO B is “ns”. For the same molecule, the pIC50 on Bovine Brain MAO A is 5.55.

In the case of `C=C=CCN(CC=C=C)Cc1cc2cc(OC)ccc2n1C` [(q), N,N-bis(2,3-butadienyl)-2-(1-methyl-5-methoxy-indolyl)methylamine], at Bovine Brain MAO B, the “Bovine Brain MAO … (nonselective)” value is on record as “ns”. Also, the pIC50 against Bovine Brain MAO A is 6.52.

For the molecule `CC#CCNCc1cc2cc(OC)ccc2[nH]1` [(d), N-(2-butynyl)-2-(5-methoxy-indolyl)methylamine], the pIC50 against Bovine Brain MAO B was less than 3.48; against Bovine Brain MAO A, 6.20.

The record behind these values is US5130327A, “Indole derivatives” (Consejo Superior de Investigaciones Cientificas, priority 1989, dated 1992).
